Data on four molecules can be found in US20240366618A1, “CGRP Antagonists for Treating Trigeminal Neuralgia” (Pfizer Ireland Pharmaceuticals, priority 2021, published 2024).

For series [1], the system named is migraine. Briefly: Three double-blind, placebo-controlled BHV-3000 migraine studies. It is filed as in vivo, human. Particulars: 75 mg dose.
Series [2] concerns migraine. The note with it: cited from earlier work.
Series [3] concerns refractory atypical trigeminal neuralgia. Briefly: Case study: oral rimegepant in one patient with refractory atypical trigeminal neuralgia. It is filed as in vivo, human. Particulars: for adverse effects / tolerability / treatment efficacy in words: treatment period of six months. The arrangement: key to Barrow Neurological Institute (BNI) pain intensity score: II: defined as no pain on medication. An excerpt: In this study, refractory atypical trigeminal neuralgia was successfully treated using rimegepant, a novel oral calcitonin gene-related peptide (CGRP) antagonist. The patient experienced a decrease in pain from seven to nine out of 10 to 0 out of 10 within one day of therapy initiation. […] Thus, this case illustrates the promise of CGRP antagonist therapy as a novel treatment for trigeminal neuralgia, including atypical trigeminal neuralgia.
A person with a 5-year history of TN presented with episodic sharp, stabbing and constant burning pain along the V2 nerve distribution. Their pain was triggered by sensation on their upper right teeth, including wind, mastication, and extreme-temperature fluids. Their self-reported pain score ranged from seven to nine out of 10, and their Barrow Neurological Institute (BNI) pain intensity score was rated IV out of V, defined as inadequate pain control with medication. At presentation, their pain regimen consisted of 300 mg oxcarbazepine per day, up to eight 15 mg tablets of oxycodone per day, and 10 mcg per hour transdermal buprenorphine patch. On neurological exam, sensation was intact to light touch bilaterally except along the right nasolabial fold, and grimace was symmetric. The patient experienced impairment in ability to perform daily activities, such as eating, working, and speaking. Other associated symptoms included headache, fatigue, and significant weight loss.
Prior to presentation, the patient unsuccessfully tried several medications for pain control, including oxcarbazepine, meperidine, carisoprodol, propranolol, pregabalin, sumatriptan, and ergot. They also failed medical cannabinoids, oxygen therapy, trigger point injections, and sphenopalatine nerve blockades. They underwent four surgical procedures at outside institutions, including Gamma Knife radiosurgery (37 months prior to presentation), right balloon rhizotomy (31 months prior to presentation), radiofrequency ablation (22 months prior to presentation), and a V2-3 radiofrequency rhizotomy (14 months prior to presentation).
Given their sharp/stabbing pain, we offered them a microvascular decompression (MVD).
After multiple trials of different medications for six years after their MVD, the patient was started on 75 mg of rimegepant per day. Within 12 hours of their first dose, their self-reported pain score improved to 0 out of 10. […] They rarely had mild (2 out of 10) pain, which was controlled with 1 mg buprenorphine. Their BNI pain intensity score was reduced to II, defined as no pain on medication.

The nature of series [4]: Ongoing long-term safety study of rimegepant. The format is in vivo, human. The note with it: 75 mg dose; preliminary data.
The test system of series [5] is classic trigeminal neuralgia. Particulars: patients with classic trigeminal neuralgia; cited from earlier work.
The subject of series [6] is trigeminal neuralgia. Particulars: cited from earlier work.
[7] abbreviates: acute migraine treatment trial, fast-dissolve orally disintegrating tablet (ODT) formulation.
The mark [8] stands for this setting: 75 mg per day, listed as Rimegepant.

Entries after “also recorded” stand apart in the source; their conditions may differ.

For the molecule `N[C@@H]1c2cccnc2[C@H](OC(=O)N2CCC(n3c(=O)[nH]c4ncccc43)CC2)CC[C@H]1c1cccc(F)c1F` [rimegepant, (5S,6S,9R)-5-amino-6-(2,3-difluorophenyl)-6,7,8,9-tetrahydro-5H-cyclohepta[b]pyridine-9-yl-4-(2-oxo-2,3-dihydro-1H-imidazo[4,5-b]pyridine-1-yl)piperidine-1-carboxylate], the “efficacy for the treatment of migraine in words” value in series [1] is listed as “effective”. Moreover, in series [2] (setting [7]), the “time postdose at which statistically significant benefit for pain relief was demonstrated” value is 60 min and the “time postdose at which statistically significant benefit on achieving pain freedom was demonstrated” value is 90 min. Moreover, the “safety profile in words” value in series [2] (migraine trials) was “favorable safety profile”. Besides, in series [2] (orally administered, preventive and acute treatment), the “efficacy in migraine in words” value was “proven efficacy in the preventive and acute treatment of migraine”. Moreover, the “time after first dose until self-reported pain score improved to 0 out of 10” value in series [3] (75 mg of rimegepant per day) was no more than 12 h. In series [3] (75 mg of rimegepant per day, within 12 hours of first dose, before treatment seven to nine out of 10), the self-reported pain score is listed as 0 out of 10. Also, the “Barrow Neurological Institute (BNI) pain intensity score” value in series [3] (on 75 mg rimegepant per day, before treatment IV out of V) is on record as “II”. In addition, in series [3] (oral rimegepant), the “time after therapy initiation until pain decreased to 0 out of 10” value is on record as “one”. Also, in series [3] (patient-reported, six-month treatment period), the mood and cognition entry was “drastic improvement in mood and cognition”. Further, the “rare mild pain during treatment” value in series [3] (six-month treatment period, 75 mg per day, controlled with 1 mg buprenorphine) is on record as 2 out of 10. Also, in series [3] (75 mg per day), the “adverse effects / tolerability” value was “no significant adverse effects” and the “treatment efficacy in words” value is given as “continues to be efficacious; also recorded: mostly had no pain”. In series [3] (setting [8]), the “adverse effects / tolerability” value is reported as “well tolerated” and the “treatment efficacy in words” value is on record as “maintains efficacy over a period of six months”. Moreover, the “adverse effects / tolerability” value in series [3] (75 mg per day, listed as rigemepant) is “lack of adverse effects”. Besides, the pain in series [3] (within one day of therapy initiation, before treatment seven to nine out of 10) is reported as 0 out of 10. Besides, the tolerability in words entry in series [4] is given as “well tolerated”.
Regarding `NC(=O)N1c2ccccc2CC(=O)c2ccccc21` [oxcarbazepine], the “response rates with initial therapy” value in series [5] is “approximately 70%”.
For `NC(=O)N1c2ccccc2C=Cc2ccccc21` [carbamazepine], in series [5], the “response rates with initial therapy” value is “approximately 70%”.

B1: erenumab: an injected anti-CGRP monoclonal antibody (antibody, chains of the INN, looked up, V domains shown)
VH: QVQLVESGGGVVQPGRSLRLSCAASGFTFSSFGMHWVRQAPGKGLEWVAVISFDGSIKYSVDSVKGRFTISRDNSKNTLFLQMNSLRAEDTAVYYCARDRLNYYDSSGYYHYKYYGMAVWGQGTTVTVSS
VL: QSVLTQPPSVSAAPGQKVTISCSGSSSNIGNNYVSWYQQLPGTAPKLLIYDNNKRPSGIPDRFSGSKSGTSTTLGITGLQTGDEADYYCGTWDSRLSAVVFGGGTKLTVL
Regarding B1, in series [6] (in vivo), the “patients reporting constipation and/or injection site reaction” value is recorded as “three” and the “side effects in words” value is on record as “minimal”. For the same molecule, the “patients with significant decrease in trigeminal neuralgia pain” value in series [6] (injected erenumab) was “nine”. Also, in series [6] (of 10 patients treated with erenumab), the “patients reporting complete pain resolution” value is “five”.
